The target of test [1] is T1, MMP-2 (Homo sapiens, UniProt P08253).
T1 sequence (P08253 110-660): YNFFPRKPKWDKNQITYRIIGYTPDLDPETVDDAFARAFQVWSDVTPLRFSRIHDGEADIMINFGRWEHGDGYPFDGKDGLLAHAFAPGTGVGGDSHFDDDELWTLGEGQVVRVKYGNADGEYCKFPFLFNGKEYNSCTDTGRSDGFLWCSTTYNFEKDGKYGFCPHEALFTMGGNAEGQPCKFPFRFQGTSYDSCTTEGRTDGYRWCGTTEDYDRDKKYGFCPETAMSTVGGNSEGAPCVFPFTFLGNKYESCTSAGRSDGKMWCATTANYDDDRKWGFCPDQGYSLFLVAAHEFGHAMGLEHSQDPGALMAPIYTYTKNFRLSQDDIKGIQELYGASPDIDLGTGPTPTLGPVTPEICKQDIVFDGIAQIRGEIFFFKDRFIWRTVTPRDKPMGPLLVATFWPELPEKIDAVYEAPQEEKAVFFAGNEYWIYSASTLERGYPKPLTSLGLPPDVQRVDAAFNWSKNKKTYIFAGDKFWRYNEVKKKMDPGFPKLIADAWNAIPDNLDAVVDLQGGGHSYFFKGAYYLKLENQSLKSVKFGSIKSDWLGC
Briefly: K(obs) of individual phage substrates (set of 1369). In kind it is biochemical. The note with it: MMP2; individual phage substrate from the set of 1369 peptides; hyphen in the sequence marks the cleavage position.

The target in test [2] is MMP-9 (Homo sapiens, UniProt P14780). Described as above. Format: biochemical. The note with it: MMP9; individual phage substrate of the set of 1369 peptides; dash in sequence marks cleavage position.
Chain of MMP-9 (Homo sapiens, UniProt P14780) (P14780 94-707): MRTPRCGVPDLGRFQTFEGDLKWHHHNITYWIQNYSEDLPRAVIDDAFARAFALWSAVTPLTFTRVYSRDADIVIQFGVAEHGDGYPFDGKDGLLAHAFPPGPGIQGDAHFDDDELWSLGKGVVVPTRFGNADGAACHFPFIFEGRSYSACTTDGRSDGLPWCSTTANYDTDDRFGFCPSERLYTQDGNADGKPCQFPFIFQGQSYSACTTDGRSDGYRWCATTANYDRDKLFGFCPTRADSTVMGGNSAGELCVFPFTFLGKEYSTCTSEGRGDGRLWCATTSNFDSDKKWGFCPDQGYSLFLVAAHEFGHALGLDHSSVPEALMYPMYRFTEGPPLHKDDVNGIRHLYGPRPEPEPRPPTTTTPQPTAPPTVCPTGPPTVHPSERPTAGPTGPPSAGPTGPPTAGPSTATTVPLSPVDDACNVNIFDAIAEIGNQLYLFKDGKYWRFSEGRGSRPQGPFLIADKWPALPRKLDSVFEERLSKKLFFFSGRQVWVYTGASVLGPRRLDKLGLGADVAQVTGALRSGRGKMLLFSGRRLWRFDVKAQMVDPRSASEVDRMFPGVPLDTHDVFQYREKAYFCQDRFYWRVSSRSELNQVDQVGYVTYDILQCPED
In test [3] the test system is MMP-9. The test can be described thus: Substrate phage display with NGS: relative probability (RP) of P3-P1' tetramer clusters.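 Also: ratio of tetramer probability after protease selection to that in naive phage library.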 In kind it is biochemical, human. The note with it: MMP9; RP of the substrate's P3-P1' tetramer, substrate phage display with NGS.

As for SGPRG-VTVTA, the “Kobs” value in test [1] and in test [2] was 12792.1 M⁻¹ s⁻¹ each time. In addition, the “relative probability (RP)” value in test [3] amounted to 42.1832.
NRPSW-VTASG: the “Kobs” value in test [1] came to 9740.44 M⁻¹ s⁻¹; in test [2] it was 12792.1 M⁻¹ s⁻¹. Also, the “relative probability (RP)” value in test [3] came out at 29.0809.
PTLQY-LTASG: the “Kobs” value in test [1] turned out to be 12792.1 M⁻¹ s⁻¹; in test [2] it was 585.336 M⁻¹ s⁻¹. Moreover, the “relative probability (RP)” value in test [3] was 2.48.
On to GAPAR-FTTAS, for which the results for the “Kobs” value in test [1] and in test [2] were 12792.1 M⁻¹ s⁻¹ and 1071.29 M⁻¹ s⁻¹, respectively. In addition, the “relative probability (RP)” value in test [3] was 21.7112.
For TMLLA-LTASG the same measures were 12792.1 M⁻¹ s⁻¹, 654.784 M⁻¹ s⁻¹ and 6.729.
Regarding MGPWG-MTASG, the “Kobs” value worked out at 4335.13 M⁻¹ s⁻¹ in test [1] and 12792.1 M⁻¹ s⁻¹ in test [2]. In test [3], the “relative probability (RP)” value amounted to 49.8335.
In the same order, the values of GRPSP-FWTAS are 12792.1 M⁻¹ s⁻¹, 3850.82 M⁻¹ s⁻¹ and 37.3217.
Consider SGPSG-WTATA, for which the “Kobs” value in test [1] worked out at 7815.03 M⁻¹ s⁻¹; in test [2] it was 6131.32 M⁻¹ s⁻¹. In addition, the “relative probability (RP)” value in test [3] is on record as 29.7011.
In the case of SYPRA-YTASG, the “Kobs” value in test [1] and in test [2] was 12792.1 M⁻¹ s⁻¹ each time. The “relative probability (RP)” value in test [3] is listed as 46.2238.
On to HVVAQ-LTASG, for which the entries for the “Kobs” value in test [1] and in test [2] were 12792.1 M⁻¹ s⁻¹ and 551.253 M⁻¹ s⁻¹, respectively. Besides, in test [3], the “relative probability (RP)” value amounted to 6.994.
With SGPRG-MKTTA, the “Kobs” value was 1418.96 M⁻¹ s⁻¹ in test [1] and 7815.03 M⁻¹ s⁻¹ in test [2]. The “relative probability (RP)” value in test [3] is 47.6962.
Consider HTVRN-VTASG, for which the figures for the “Kobs” value in test [1] and in test [2] were 5269.78 M⁻¹ s⁻¹ and 3079.62 M⁻¹ s⁻¹, respectively. In addition, the “relative probability (RP)” value in test [3] was determined as 19.0254.
Turning to MSPKG-VTASG, the “Kobs” value in test [1] and in test [2] was 12792.1 M⁻¹ s⁻¹ each time. For the same substance, in test [3], the “relative probability (RP)” value was 38.7703.
Take RMPRQ-VTASG: the “Kobs” value in test [1] was determined as 1196.62 M⁻¹ s⁻¹; in test [2], 1981.53 M⁻¹ s⁻¹. For the same substance, the “relative probability (RP)” value in test [3] turned out to be 25.107.
In the same order, the values of QRWFA-LTASG are 2038.8 M⁻¹ s⁻¹, 6688.74 M⁻¹ s⁻¹ and 14.7831.
Take GFVFE-LRTAS: the “Kobs” value in test [1] turned out to be 5889.62 M⁻¹ s⁻¹; in test [2], 9740.44 M⁻¹ s⁻¹. In test [3], the “relative probability (RP)” value turned out to be 20.3412.
HAPSL-YTASG: the “Kobs” value in test [1] and in test [2] was 12792.1 M⁻¹ s⁻¹ each time. In addition, in test [3], the “relative probability (RP)” value is on record as 23.6706.
Turning to GVVGA-LRTAS, the figures for the “Kobs” value in test [1] and in test [2] were 10866.7 M⁻¹ s⁻¹ and 874.197 M⁻¹ s⁻¹, respectively. In addition, the “relative probability (RP)” value in test [3] is reported as 19.0529.
In the case of WQVRY-LTASG, the “Kobs” value in test [1] and in test [2] was 12792.1 M⁻¹ s⁻¹ each time. The “relative probability (RP)” value in test [3] worked out at 32.3577.
Turning to GMPLL-LRTAS, the “Kobs” value worked out at 8321.48 M⁻¹ s⁻¹ in test [1] and 12792.1 M⁻¹ s⁻¹ in test [2]. Further, the “relative probability (RP)” value in test [3] is recorded as 32.5638.
For the substance GSHAA-LRTAS, the figures for the “Kobs” value in test [1] and in test [2] were 12792.1 M⁻¹ s⁻¹ and 0 M⁻¹ s⁻¹, respectively. Further, in test [3], the “relative probability (RP)” value came out at 0.9522.
In the same order, the values of GGIAA-MRTAS are 1071.29 M⁻¹ s⁻¹, 386.839 M⁻¹ s⁻¹ and 10.5791.
For the substance NGPYN-LTASG, the “Kobs” value in test [1] was determined as 5461.43 M⁻¹ s⁻¹; in test [2] it was 12792.1 M⁻¹ s⁻¹. In test [3], the “relative probability (RP)” value is 49.1716.
In the same order, the values of QVPRR-LTASG are 12792.1 M⁻¹ s⁻¹, 10866.7 M⁻¹ s⁻¹ and 2.666.
In the same order, the values of SVLSK-LTASG are 12792.1 M⁻¹ s⁻¹, 0 M⁻¹ s⁻¹ and 0.5605.
On to KRLAF-LTASG, for which the “Kobs” value in test [1] was 12792.1 M⁻¹ s⁻¹; in test [2], 912.511 M⁻¹ s⁻¹. In addition, in test [3], the “relative probability (RP)” value is on record as 0.6348.
With SGPKW-MRHTA, the results for the “Kobs” value in test [1] and in test [2] were 2409.72 M⁻¹ s⁻¹ and 4922.1 M⁻¹ s⁻¹, respectively. The “relative probability (RP)” value in test [3] was found to be 51.5185.
As for GRATA-LYTAS, the figures for the “Kobs” value in test [1] and in test [2] were 4082.43 M⁻¹ s⁻¹ and 1283.43 M⁻¹ s⁻¹, respectively. Further, the “relative probability (RP)” value in test [3] was 15.5991.
With VQLAY-FTASG, the “Kobs” value was found to be 12792.1 M⁻¹ s⁻¹ in test [1] and 1030.73 M⁻¹ s⁻¹ in test [2]. Further, the “relative probability (RP)” value in test [3] was determined as 0.5079.
Regarding SGPSW-IMRTA, the “Kobs” value in test [1] and in test [2] was 12792.1 M⁻¹ s⁻¹ in each case. The “relative probability (RP)” value in test [3] is 43.303.
As for SGPRL-YIGTA, the “Kobs” value in test [1] stood at 5667.28 M⁻¹ s⁻¹; in test [2], 12792.1 M⁻¹ s⁻¹. For the same substance, in test [3], the “relative probability (RP)” value worked out at 32.3351.
In the case of SGPSA-LDATA, the “Kobs” value in test [1] was found to be 5269.78 M⁻¹ s⁻¹; in test [2], 799.117 M⁻¹ s⁻¹. Also, the “relative probability (RP)” value in test [3] turned out to be 47.6113.
As to SGPRS-WTNTA, the “Kobs” value in test [1] is 5889.62 M⁻¹ s⁻¹; in test [2], 5090.5 M⁻¹ s⁻¹. Besides, the “relative probability (RP)” value in test [3] turned out to be 40.7744.
Consider ERPFF-LTASG, for which the “Kobs” value in test [1] and in test [2] was 12792.1 M⁻¹ s⁻¹ throughout. Also, the “relative probability (RP)” value in test [3] amounted to 36.9909.
Turning to WDIRS-LTASG, the results for the “Kobs” value in test [1] and in test [2] were 12792.1 M⁻¹ s⁻¹ and 9740.44 M⁻¹ s⁻¹, respectively. Moreover, the “relative probability (RP)” value in test [3] was 30.8005.
On to IMHRA-LTASG, for which the “Kobs” value came to 12792.1 M⁻¹ s⁻¹ in test [1] and 9740.44 M⁻¹ s⁻¹ in test [2]. Besides, the “relative probability (RP)” value in test [3] stood at 18.7073.
Turning to FVVRL-LTASG, the “Kobs” value in test [1] and in test [2] was 2615.58 M⁻¹ s⁻¹ throughout. The “relative probability (RP)” value in test [3] worked out at 11.0035.
With SGPAS-LLNTA, the entries for the “Kobs” value in test [1] and in test [2] were 12792.1 M⁻¹ s⁻¹ and 9740.44 M⁻¹ s⁻¹, respectively. For the same substance, the “relative probability (RP)” value in test [3] amounted to 46.2982.
For the substance VEAVA-ITASG, the “Kobs” value in test [1] amounted to 5090.5 M⁻¹ s⁻¹; in test [2], 4922.1 M⁻¹ s⁻¹. Also, the “relative probability (RP)” value in test [3] is on record as 21.5568.
Consider SGPKL-LTASG, for which the “Kobs” value came out at 5090.5 M⁻¹ s⁻¹ in test [1] and 12792.1 M⁻¹ s⁻¹ in test [2]. Besides, the “relative probability (RP)” value in test [3] was 35.7561.
As to GNPAQ-MRTAS, the “Kobs” value in test [1] worked out at 12792.1 M⁻¹ s⁻¹; in test [2], 7015.91 M⁻¹ s⁻¹. The “relative probability (RP)” value in test [3] was 38.7952.
Consider NSPSD-LTASG, for which the figures for the “Kobs” value in test [1] and in test [2] were 12792.1 M⁻¹ s⁻¹ and 9740.44 M⁻¹ s⁻¹, respectively. Besides, the “relative probability (RP)” value in test [3] is listed as 38.1321.
For the substance SGPVS-MRYTA, the “Kobs” value in test [1] was 12792.1 M⁻¹ s⁻¹; in test [2], 7015.91 M⁻¹ s⁻¹. Besides, the “relative probability (RP)” value in test [3] is recorded as 41.2029.
In the same order, the values of FEPQR-MTASG are 690.17 M⁻¹ s⁻¹, 7815.03 M⁻¹ s⁻¹ and 31.7168.
Consider GRPLN-LSTAS, for which the “Kobs” value in test [1] and in test [2] was 12792.1 M⁻¹ s⁻¹ in each case. For the same substance, in test [3], the “relative probability (RP)” value came to 48.0943.
As to GLPAA-LTTAS, the “Kobs” value in test [1] and in test [2] was 12792.1 M⁻¹ s⁻¹ in each case. Also, the “relative probability (RP)” value in test [3] was determined as 47.6262.
For the substance VFPQG-MTASG, the “Kobs” value in test [1] was determined as 2476.66 M⁻¹ s⁻¹; in test [2], 8321.48 M⁻¹ s⁻¹. Further, the “relative probability (RP)” value in test [3] is recorded as 46.1377.
Turning to GDPRW-LSTAS, the results for the “Kobs” value in test [1] and in test [2] were 6688.74 M⁻¹ s⁻¹ and 9740.44 M⁻¹ s⁻¹, respectively. Further, in test [3], the “relative probability (RP)” value stood at 47.776.
GMVRG-VTASG: the results for the “Kobs” value in test [1] and in test [2] were 7386.83 M⁻¹ s⁻¹ and 2761.81 M⁻¹ s⁻¹, respectively. In test [3], the “relative probability (RP)” value worked out at 13.8249.
SGPFS-NRATA: the “Kobs” value in test [1] came to 292.668 M⁻¹ s⁻¹; in test [2], 2687.73 M⁻¹ s⁻¹. Besides, the “relative probability (RP)” value in test [3] worked out at 1.097.
For GVPKN-QMTAS, the entries for the “Kobs” value in test [1] and in test [2] were 4205.91 M⁻¹ s⁻¹ and 7815.03 M⁻¹ s⁻¹, respectively. Further, in test [3], the “relative probability (RP)” value amounted to 35.1259.
Consider VLFGA-LTASG, for which the “Kobs” value in test [1] came to 8321.48 M⁻¹ s⁻¹; in test [2] it was 386.839 M⁻¹ s⁻¹. Besides, in test [3], the “relative probability (RP)” value is given as 2.95.
SGPQW-MINTA: the results for the “Kobs” value in test [1] and in test [2] were 6131.32 M⁻¹ s⁻¹ and 4613.14 M⁻¹ s⁻¹, respectively. The “relative probability (RP)” value in test [3] is 45.9264.
IGVRQ-LTASG: the “Kobs” value in test [1] amounted to 3536.02 M⁻¹ s⁻¹; in test [2], 12792.1 M⁻¹ s⁻¹. In addition, in test [3], the “relative probability (RP)” value was determined as 23.9228.

The values are drawn from publication PMC7932537, “Quantitative profiling of protease specificity” (PLoS Computational Biology, 2021).
